Assay results from US12281122B1, “PI3K inhibitors” (Cogent Biosciences, Inc., priority 2023, dated 2025).

Assays:
[1] = system: SKBR3 (PI3Kα-Wild Type) cell line; experiment: HTRF phospho-AKT(S473) cell assay in SKBR3 cells; assay type: cell-based, human; settings: Homo sapiens, SK-BR-3, 2 hours compound incubation, PDGF-BB stimulated
Outline: (§1)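 T47D (PI3Kα-H1047R; RPMI, 10% FBS, insulin) and SKBR3 (wild-type PI3Kα; McCoy's 5A, 10% FBS) cells treated 2 h at 37 °C with 12-point 1:3 dilutions, top 5 μM and 10 μM respectively, ≤0.5% DMSO. SKBR3 stimulated with 70 ng/ml PDGF-BB for the last 15 min; lysate pAKT(S473) by HTRF, IC50 from curves.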

[2] = system: T47D (PI3Kα-H1047R) cell line; experiment: HTRF phospho-AKT(S473) cell assay in T47D cells; assay type: cell-based, human; settings: Homo sapiens, 2 hours compound incubation
Outline: as §1

[3] = HTRF phospho-AKT(S473), SKBR3 (PI3Kα-Wild Type) cells
[4] = HTRF phospho-AKT(S473), T47D (PI3Kα-H1047R) cells
[5] = SKBR3 (PI3Kα-Wild Type) cells, HTRF phospho-AKT(S473)
[6] = T47D (PI3Kα-H1047R) cells, HTRF phospho-AKT(S473)

IC50 [1, 3] [nM]	IC50 [2, 4] [nM]	IC50 [1, 5] [nM]	IC50 [2, 6] [nM]	Compound	further results
≥ 5000	250 to 500			Cc1cc([C@@H](C)Nc2ccc(Cl)nc2C(=O)NS(C)(=O)=O)c2nc(N3CCC(c4nc(C(F)(F)F)n(C)n4)CC3)n(C)c(=O)c2c1 [Compound 458, (R)-6-chloro-3-((1-(3,6-dimethyl-2-(4-(1-methyl-5-(trifluoromethyl)-1H-1,2,4-triazol-3-yl)piperidin-1-yl)-4-oxo-3,4-dihydroquinazolin-8-yl)ethyl)amino)-N-(methylsulfonyl) picolinamide]	
1000 to 5000	< 250			Cc1cc([C@@H](C)Nc2ccc(Cl)nc2C(=O)NS(C)(=O)=O)c2nc(N3C[C@@H]4[C@H](C3)[C@H]4c3ccnn3C(F)F)n(C)c(=O)c2c1 [Compound 471, 6-chloro-3-(((R)-1-(2-((1R,5S,6R)-6-(1-(difluoromethyl)-1H-pyrazol-5-yl)-3-azabicyclo[3.1.0]hexan-3-yl)-3,6-dimethyl-4-oxo-3,4-dihydroquinazolin-8-yl)ethyl)amino)-N-(methylsulfonyl) picolinamide]	
≥ 5000	250 to 500			Cc1cc([C@@H](C)Nc2ccc(Cl)nc2C(=O)NS(=O)(=O)c2ccc(N(C)C)nc2)c2nc(N3Cc4ccc(F)cc4C3)n(C)c(=O)c2c1 [Compound 757, (R)-6-chloro-N-((6-(dimethylamino)pyridin-3-yl)sulfonyl)-3-((1-(2-(5-fluoroisoindolin-2-yl)-3,6-dimethyl-4-oxo-3,4-dihydroquinazolin-8-yl)ethyl)amino) picolinamide]	
≥ 5000	250 to 500			Cc1cc([C@@H](C)Nc2ccc(Cl)nc2C(=O)NS(C)(=O)=O)c2nc(N3CCC(n4ccccc4=O)CC3)n(C)c(=O)c2c1 [Compound 677, (R)-6-chloro-3-((1-(3,6-dimethyl-4-oxo-2-(4-(2-oxopyridin-1(2H)-yl)piperidin-1-yl)-3,4-dihydroquinazolin-8-yl)ethyl)amino)-N-(methylsulfonyl) picolinamide]	
1000 to 5000	250 to 500			Cc1cc([C@@H](C)Nc2ccc(Cl)nc2C(=O)NS(C)(=O)=O)c2nc(N3C[C@@H]4C[C@H]3CN4c3nccnc3C)n(C)c(=O)c2c1 [Compound 726, 6-chloro-3-(((R)-1-(3,6-dimethyl-2-((1S,4S)-5-(3-methylpyrazin-2-yl)-2,5-diazabicyclo[2.2.1]heptan-2-yl)-4-oxo-3,4-dihydroquinazolin-8-yl)ethyl)amino)-N-(methylsulfonyl) picolinamide]	
≥ 5000	250 to 500			Cc1cc([C@@H](C)Nc2ccc(Cl)nc2C(=O)NS(C)(=O)=O)c2nc(N3C[C@@H]4[C@H](C3)[C@H]4c3cnc(C)nc3)n(C3CC3)c(=O)c2c1 [Compound 606, 6-chloro-3-(((R)-1-(3-cyclopropyl-6-methyl-2-((1R,5S,6S)-6-(2-methylpyrimidin-5-yl)-3-azabicyclo[3.1.0]hexan-3-yl)-4-oxo-3,4-dihydroquinazolin-8-yl)ethyl)amino)-N-(methylsulfonyl) picolinamide]	
1000 to 5000	250 to 500			Cc1cc([C@@H](C)Nc2ccc(Cl)nc2C(=O)NS(C)(=O)=O)c2nc(N3C[C@@H]4[C@H](C3)[C@H]4c3cc[nH]n3)n(C)c(=O)c2c1 [Compound 699, 3-(((R)-1-(2-((1R,5S,6R)-6-(1H-pyrazol-3-yl)-3-azabicyclo[3.1.0]hexan-3-yl)-3,6-dimethyl-4-oxo-3,4-dihydroquinazolin-8-yl)ethyl)amino)-6-chloro-N-(methylsulfonyl) picolinamide]	

Further lines, the compound ahead of its results:

Compound	IC50 [1, 3] [nM]	IC50 [2, 4] [nM]	IC50 [1, 5] [nM]	IC50 [2, 6] [nM]	further results
Cc1cc([C@@H](C)Nc2ccc(Cl)nc2C(=O)NS(C)(=O)=O)c2nc(N3CC[C@H](Oc4cnn(C)c4)C3)n(C)c(=O)c2c1 [Compound 331, 6-chloro-3-(((R)-1-(3,6-dimethyl-2-((S)-3-((1-methyl-1H-pyrazol-4-yl)oxy)pyrrolidin-1-yl)-4-oxo-3,4-dihydroquinazolin-8-yl)ethyl)amino)-N-(methylsulfonyl) picolinamide]			1000 to 5000	< 250	
Cc1cc([C@@H](C)Nc2ccc(Cl)nc2C(=O)NS(C)(=O)=O)c2nc(N3C[C@@H]4[C@H](C3)[C@H]4c3n[nH]cc3F)n(C)c(=O)c2c1 [Compound 454, 6-chloro-3-(((R)-1-(2-((1R,5S,6R)-6-(4-fluoro-1H-pyrazol-3-yl)-3-azabicyclo[3.1.0]hexan-3-yl)-3,6-dimethyl-4-oxo-3,4-dihydroquinazolin-8-yl)ethyl)amino)-N-(methylsulfonyl) picolinamide]	1000 to 5000	< 250			
Cc1cc([C@@H](C)Nc2ccc(Cl)nc2C(=O)NS(C)(=O)=O)c2nc(N3Cc4cn(C)nc4C3)n(C)c(=O)c2c1 [Compound 396, (R)-6-chloro-3-((1-(3,6-dimethyl-2-(2-methyl-2,6-dihydropyrrolo[3,4-c]pyrazol-5(4H)-yl)-4-oxo-3,4-dihydroquinazolin-8-yl)ethyl)amino)-N-(methylsulfonyl) picolinamide]			1000 to 5000	< 250	
Cc1cc([C@@H](C)Nc2ccc(Cl)nc2C(=O)NS(C)(=O)=O)c2nc(N3Cc4cn(-c5cccnc5C)nc4C3)n(C)c(=O)c2c1 [Compound 246, (R)-6-chloro-3-((1-(3,6-dimethyl-2-(2-(2-methylpyridin-3-yl)-2,6-dihydropyrrolo[3,4-c]pyrazol-5(4H)-yl)-4-oxo-3,4-dihydroquinazolin-8-yl)ethyl)amino)-N-(methylsulfonyl) picolinamide]			1000 to 5000	< 250	
Cc1cc([C@@H](C)Nc2ccc(Cl)nc2C(=O)NS(C)(=O)=O)c2nc(N3CCC[C@@H](c4ccncc4)C3)n(C)c(=O)c2c1 (relative stereo) [Compound 207, 6-chloro-3-(((R)-1-(3,6-dimethyl-4-oxo-2-((R*)-3-(pyridin-4-yl)piperidin-1-yl)-3,4-dihydroquinazolin-8-yl)ethyl)amino)-N-(methylsulfonyl) picolinamide]			1000 to 5000	< 250	
Cc1cc([C@@H](C)Nc2ccc(Cl)nc2C(=O)NS(C)(=O)=O)c2nc(N3CCC(c4nn(C)cc4F)CC3)n(C3CC3)c(=O)c2c1 [Compound 410, (R)-6-chloro-3-((1-(3-cyclopropyl-2-(4-(4-fluoro-1-methyl-1H-pyrazol-3-yl)piperidin-1-yl)-6-methyl-4-oxo-3,4-dihydroquinazolin-8-yl)ethyl)amino)-N-(methylsulfonyl) picolinamide]			≥ 5000	250 to 500	
Cc1cc([C@@H](C)Nc2ccc(Cl)nc2C(=O)NS(C)(=O)=O)c2nc(N3CC[C@@H](c4ccn(C)n4)CC3(C)C)n(C)c(=O)c2c1 (relative stereo) [Compound 324, 6-chloro-3-(((R)-1-(2-((R*)-2,2-dimethyl-4-(1-methyl-1H-pyrazol-3-yl)piperidin-1-yl)-3,6-dimethyl-4-oxo-3,4-dihydroquinazolin-8-yl)ethyl)amino)-N-(methylsulfonyl) picolinamide]			≥ 5000	< 250	
Cc1cc([C@@H](C)Nc2ccc(Cl)nc2C(=O)NS(C)(=O)=O)c2nc(N3CCN(c4cnn(CC(F)(F)F)c4)CC3)n(C)c(=O)c2c1 [Compound 193, (R)-6-chloro-3-((1-(3,6-dimethyl-4-oxo-2-(4-(1-(2,2,2-trifluoroethyl)-1H-pyrazol-4-yl)piperazin-1-yl)-3,4-dihydroquinazolin-8-yl)ethyl)amino)-N-(methylsulfonyl) picolinamide]			1000 to 5000	< 250	
Cc1cc([C@@H](C)Nc2ccc(Cl)nc2C(=O)NS(C)(=O)=O)c2nc(-c3ccc4nc(C)cn4c3)n(C)c(=O)c2c1 [Compound 844, (R)-6-chloro-3-((1-(3,6-dimethyl-2-(2-methylimidazo[1,2-a]pyridin-6-yl)-4-oxo-3,4-dihydroquinazolin-8-yl)ethyl)amino)-N-(methylsulfonyl) picolinamide]					IC50 ([1]; SKBR3 (PI3Kα-Wild Type) cell line, phospho-AKT(S473) HTRF): 1000 to 5000 nM; IC50 ([2]; T47D (PI3Kα-H1047R) cell line, phospho-AKT(S473) HTRF): 250 to 500 nM
Cc1cc([C@@H](C)Nc2ccc(Cl)nc2C(=O)NS(C)(=O)=O)c2nc(N3CCC(C)(c4ccnn4C)CC3)n(C)c(=O)c2c1 [Compound 302, (R)-6-chloro-3-((1-(3,6-dimethyl-2-(4-methyl-4-(1-methyl-1H-pyrazol-5-yl)piperidin-1-yl)-4-oxo-3,4-dihydroquinazolin-8-yl)ethyl)amino)-N-(methylsulfonyl) picolinamide]			1000 to 5000	< 250	
Cc1cc([C@@H](C)Nc2ccc(Cl)nc2C(=O)NS(C)(=O)=O)c2nc(N3CCC(c4ccnn4C)CC3)n(C)c(=O)c2c1 [Compound 389, (R)-6-chloro-3-((1-(3,6-dimethyl-2-(4-(1-methyl-1H-pyrazol-5-yl)piperidin-1-yl)-4-oxo-3,4-dihydroquinazolin-8-yl)ethyl)amino)-N-(methylsulfonyl) picolinamide]			1000 to 5000	< 250	
Cc1cc([C@@H](C)Nc2ccc(Cl)nc2C(=O)NS(C)(=O)=O)c2nc(N3C[C@@H]4C[C@H]3C[C@@H]4c3nn(C)cc3F)n(C)c(=O)c2c1 (relative stereo) [Compound 444, 6-chloro-3-(((R)-1-(2-((1R*,4S*,5R*)-5-(4-fluoro-1-methyl-1H-pyrazol-3-yl)-2-azabicyclo[2.2.1]heptan-2-yl)-3,6-dimethyl-4-oxo-3,4-dihydroquinazolin-8-yl)ethyl)amino)-N-(methylsulfonyl) picolinamide]	≥ 5000	250 to 500			
